According to US20200187504A1, “ENVIRONMENTALLY FRIENDLY COMPOSITIONS FOR FOLIAR AND GRANULAR CONTROL OF WEEDS” (priority 2018, published 2020):

Columns and labels:
[1] = test system: humans; conditions: 2005 carcinogen assessment guidelines; cited from earlier work
[2] = test system: French marigold; conditions: Choi et al. (1996); cited from earlier work
[3] = test system: seed geranium; conditions: Lee et al. (1996), in combination with nitrogen, phosphorus, and potassium; cited from earlier work
[4] = test system: Forbs (Weeds); assay: Weedy turf test plots: forb (weed) cover and weed control after treatment; assay type: in vivo; conditions: for control of invasive weeds, in words: Fall-treated turf plots of Table 4, 10-month study period, rate as in the label; for Forbs (Weeds) 8 months: cover in weedy turf plots of Table 4, 8 months; for Forbs (Weeds) 10 months: cover in weedy turf plots of Table 4, 10 months; for Forbs (Weeds) 12 months: cover in weedy turf plots of Table 4, 12 months; for 8-12 month average weed cover: weedy turf plots of Table 4
From the text: Then, multiple plots were installed in weedy turf for liquid boron fertilizer application. The plots listed in Table 4 were used for varying application rates of B1300 where the amount of liquid applied to each plot varied. The sprayer was weighed before and after each application and the application rate determined by calculation knowing the concentration of B1300 liquid applied. The results of foliar liquid applied in controlling invasive species is reported in FIG. 3 and compared to an untreated control. As presented in FIG. 3, […] rates of liquid B1300 (47 pounds B/acre, 62 pounds B/acre, 75 pounds B/acre, and 93 pounds B/acre), which show the effectiveness of each rate in limiting the growth of invasive plant species. The weedy plants controlled included dandelion (Taraxacum officiniale), oxeye daisy (Chrysanthemum leucanthemum), black medic (Medicago lupulina), Canadian thistle (Circium arvense), and white clover (Trifolium repens). The desirable perennial grasses that were unharmed or stimulated included Kentucky bluegrass (Poa pratensis) and smooth brome (Bromus inermis). The effectiveness of relevant commercial products targeting control of invasive plant species are shown in FIG. 5C and include glyphosate, Natria FeHEDTA and 2-4 D.
(§1) Table 4 lists the tested plots with various treatment using granular and/or liquid boron formulations alone, or in combination with another micronutrient Cu and/or macronutrients including N, P, K. FIG. 3 and FIGS. 5A-5E represent phytotoxicity effect on weed control by investigating coverage after the desired treatments from the test plots listed in Table 4. Also, FIGS. 9A-9D to FIGS. 25A-25D present actual vegetation conditions of each plot after the desired treatment described in Table 4.
[…] At this North American field site snow covered the ground from approximately December through March. The weedy plants controlled included dandelion (Taraxacum officiniale), oxeye daisy (Chrysanthemum leucanthemum), black medic (Medicago lupulina), Canadian thistle (Circium arvense), and white clover (Trifolium repens). The desirable perennial grasses that were unharmed or stimulated included Kentucky bluegrass (Poa pratensis) and smooth brome (Bromus inermis).

[5] = test system: weedy turf; assay: Weedy turf test plots: Vegetation Ranking Index; assay type: in vivo; conditions: healthy perennial grass cover x 3.5 minus 2.5 x stressed/unhealthy grass minus weed cover
From the text: as §1

[6] = test system: Perennial Grass; assay: Weedy turf test plots: perennial grass cover and turf stress after treatment; assay type: in vivo; conditions: for Perennial Grass 8 months: cover in weedy turf plots of Table 4, 8 months, B and N rates per treatment; for Perennial Grass 10 months: cover in weedy turf plots of Table 4, 10 months; for Perennial Grass 12 months: cover in weedy turf plots of Table 4, 12 months; for 8-12 month average grass cover: weedy turf plots of Table 4
From the text: Then, multiple plots were installed in weedy turf for liquid boron fertilizer application. The plots listed in Table 4 were used for varying application rates of B1300 where the amount of liquid applied to each plot varied. The sprayer was weighed before and after each application and the application rate determined by calculation knowing the concentration of B1300 liquid applied. The results of foliar liquid applied in controlling invasive species is reported in FIG. 3 and compared to an untreated control. As presented in FIG. 3, the plots were monitored 1 month, 8 months and 10 months after four different application rates of liquid B1300 (47 pounds B/acre, 62 pounds B/acre, 75 pounds B/acre, and 93 pounds B/acre), which show the effectiveness of each rate in limiting the growth of invasive plant species. The weedy plants controlled included dandelion (Taraxacum officiniale), oxeye daisy (Chrysanthemum leucanthemum), black medic (Medicago lupulina), Canadian thistle (Circium arvense), and white clover (Trifolium repens). The desirable perennial grasses that were unharmed or stimulated included Kentucky bluegrass (Poa pratensis) and smooth brome (Bromus inermis). The effectiveness of relevant commercial products targeting control of invasive plant species are shown in FIG. 5C and include glyphosate, Natria FeHEDTA and 2-4 D.
as §1
In this example the fertilizer was applied to weedy turf grass in September with approximately 50% invasive plant cover and then monitored again one, eight and ten months after initial application. At this North American field site snow covered the ground from approximately December through March. The weedy plants controlled included dandelion (Taraxacum officiniale), oxeye daisy (Chrysanthemum leucanthemum), black medic (Medicago lupulina), Canadian thistle (Circium arvense), and white clover (Trifolium repens). The desirable perennial grasses that were unharmed or stimulated included Kentucky bluegrass (Poa pratensis) and smooth brome (Bromus inermis).

[7] = test system: chlorophyllitic plants; conditions: as little as; cited from earlier work
[8] = test system: prostrate knotweed; assay: Foliar spray on prostrate knotweed, compared with Roundup; assay type: in vivo, Polygonum aviculare
From the text: In this example, liquid B1300 product was formulated by dissolving 1300 grams of 20.5% Boron (Solubor®) into 4 gallons of water for a foliar spray to target plants, either with or without ‘drizzle down’ of the liquid into the roots. Also, liquid B1440 product was formulated by dissolving 1440 grams of 20.5% Boron (Solubor®) into 4 gallons of water. Many invasive plants are controlled by B1300 foliar spray as presented in FIGS. 1A-1C or B1440 foliar spray as presented in FIGS. 2A-2C. Annual invasive plant species are easily controlled by phytotoxic nutrient addition since they have to grow from seed every year and have the least reliance on well—developed/extensive root systems and/or taproots that store plant resources. Annual invasive plants also have to grow from near the soil surface every year where it is easiest to add phytotoxic micronutrients and change the soil chemistry to inhibit or control the annual plant's growth. Perennial invasive plants grow every year from the previous years roots and take generally two forms: tap root species and extensive well-developed root systems. In general, it is difficult to control these invasive perennial plants compared to annual plants due to roots with plant resources deep in the soil. […]

[9] = test system: selected grasses and forbs; conditions: greenhouse trials, Munshower and others (2006); cited from earlier work

Question: For `OB(O)O` [boric acid], which “U.S. EPA carcinogenicity classification” value [1] is on record?
Answer: not likely to be carcinogenic to humans

Question: With `[Mn+2]` [Mn, manganese] as the molecule, how does the “concentration inducing micro-nutrient toxicity” value [2] read?
Answer: 2 mM

Question: And the “concentration of nutrient solution inducing toxicity symptoms” value [3]?
Answer: 1 mM

Question: Which “concentration inducing micro-nutrient toxicity” value [2] does the source give for `[Zn]` [Zn, zinc] here?
Answer: 5 mM

Question: And the “concentration of nutrient solution inducing toxicity symptoms” value [3]?
Answer: 0.5 mM

Question: Which “concentration inducing micro-nutrient toxicity” value [2] does the source give for `[Cu]` [Cu, copper] here?
Answer: 4 mM

Question: And the “concentration of nutrient solution inducing toxicity symptoms” value [3]?
Answer: 0.5 mM

Question: With `O=C(O)COc1ccc(Cl)cc1Cl` [2-4D (S), 2,4-Dichlorophenoxyacetic acid] as the molecule, how does the “control of invasive weeds, in words” value [4] read?
Answer: short-term treatment effect

Question: What about the “Forbs (Weeds) 8 months” value [4] of the same molecule?
Answer: 5%

Question: And the “Forbs (Weeds) 10 months” value [4]?
Answer: 15%

Question: What about the “Forbs (Weeds) 12 months” value [4] of the same molecule?
Answer: 22%

Question: And the “8-12 month average weed cover” value [4]?
Answer: 14%

Question: What about the “Vegetation Ranking Index” value [5] of the same molecule?
Answer: 13

Question: What about the “Perennial Grass 8 months” value [6] of the same molecule?
Answer: 90%

Question: And the “Perennial Grass 10 months” value [6]?
Answer: 85%

Question: And the “Perennial Grass 12 months” value [6]?
Answer: 78%

Question: And the “8-12 month average grass cover” value [6]?
Answer: 84%

Question: For `O=C(O)CNCP(=O)(O)O` [Glyphosate (S), glyphosate], which “application rate effective at causing photosynthetic disruption” value [7] is on record?
Answer: 0.75 pounds active ingredient per acre

Question: And the “control of invasive weeds, in words” value [4]?
Answer: dominated by weeds by mid-summer

Question: What about the “effectiveness in treated turf plots” value ([4]; about 30 days after treatment) of the same molecule?
Answer: 100%

Question: And the “Forbs (Weeds) 8 months” value [4]?
Answer: 10%

Question: What about the “Forbs (Weeds) 10 months” value [4] of the same molecule?
Answer: 95%

Question: What about the “Forbs (Weeds) 12 months” value [4] of the same molecule?
Answer: 90%

Question: What about the weed cover ([4]; next year after treatment, pre-treatment ~50% weed cover) of the same molecule?
Answer: ~75%

Question: What about the “8-12 month average weed cover” value [4] of the same molecule?
Answer: 65%

Question: What about the “Vegetation Ranking Index” value [5] of the same molecule?
Answer: −133

Question: And the “effectiveness on prostrate knotweed, in words” value ([8]; along a gravel trail, FIG. 26D)?
Answer: highly effective

Question: What about the “effectiveness in rain affected test” value ([8]; plots put out 3 hours before a heavy rain (~1.0")) of the same molecule?
Answer: highly effective

Question: And the “stress on perennial turf grasses, in words” value ([6]; Fall-treated turf plots of Table 4, 10-month study period, rate as in the label)?
Answer: has no perennial grasses

Question: What about the “Perennial Grass 8 months” value [6] of the same molecule?
Answer: 0%

Question: What about the “Perennial Grass 10 months” value [6] of the same molecule?
Answer: 0%

Question: What about the “Perennial Grass 12 months” value [6] of the same molecule?
Answer: 0%

Question: And the “8-12 month average grass cover” value [6]?
Answer: 0%

Question: With `[B]` [B, boron] as the molecule, how does the “concentration inducing micro-nutrient toxicity” value [2] read?
Answer: 0.5 mM

Question: What about the “solution concentration at which plants performed adequately” value [9] of the same molecule?
Answer: up to 40 mg B/L

Question: What about the “concentration of nutrient solution inducing toxicity symptoms” value [3] of the same molecule?
Answer: 0.5 mM

Question: For `[Fe]` [Fe, iron], which “concentration inducing micro-nutrient toxicity” value [2] is on record?
Answer: 4 mM

Question: What about the “concentration of nutrient solution inducing toxicity symptoms” value [3] of the same molecule?
Answer: 0.5 mM

Question: Which “concentration inducing micro-nutrient toxicity” value [2] does the source give for `[Mo]` [Mo, molybdenum] here?
Answer: 1 mM

Question: And the “concentration of nutrient solution inducing toxicity symptoms” value [3]?
Answer: 0.25 mM
